Laboratory results taken from US11938129B2, “Methods and compositions for the treatment of vascular disease” (THE GENERAL HOSPITAL CORPORATION, priority 2018, dated 2024).
Entries after “also recorded” stand apart in the source; their conditions may differ.

Experiments:
Hdac9 = assay: immunofluorescence of Hdac9 in ligated carotid; format: in vivo, mouse; settings: arterial media and intima of carotid arteries
Procedure: (§1) All mice used in this study were cared for under strict compliance with the Partners Institutional Animal Care and Use Committee (IACUC), regulated by the United States Public Health Service (USPHS). Carotid ligations were performed in 10 week old mice. Briefly, animals were anesthetized using intraperitoneal ketamine/xylazine (80 and 12 mg/kg, respectively) followed by a small incision in the neck to expose the carotid artery. Then the left carotid was ligated at the carotid bifurcation level using a 8-0 silk suture. At 21 days mice were sacrificed and carotids were collected for histological analysis. Approximately 98% of wild type mice developed stenotic lesions. Mice that developed thrombosis of the ligated carotid were excluded from the study (−1¬2%). Malatl knockout mice were kindly provided by Dr. David Spector (Cold Spring Harbor, N.Y.). Hdac9 flox/flox/Talgn-cre mice were generated as previously reported (10). […]
(§2) Left and right carotids were cryosectioned using OCT standard protocol and sectioning. […] Slides 1, 5, 10, and 15 were H&E stained for quantification of neointima. For quantification of the neointima, internal and external elastic lamina perimeters and medial thickness from 4 quadrants were measured and averaged using Image J software from the National Institutes of Health (NIH). […]

TGF-β signaling = assay: TGF-β activity by phosphorylation of Smad2 or Erk1 in aortas of treated mice; format: in vivo, mouse; settings: aortic tissue of treated Fbn1C1039G/+ mice
Procedure: (§3) Latex was injected into the left ventricular apex under low pressure until it was visible in the femoral artery. Animals were then fixed in Formalin (10%) for 24 hours before transfer to 70% ethanol for dissection and storage. Aortas were then removed from the animals or dissected in situ for photography prior to paraffinization and sectioning (10 pM). Slides were produced for tissue staining or stained with standard stains including H&E staining, collagen deposition (Trichrome Stain (Masson) Kit, Sigma, USA), elastin (Verhoeff-Van Gieson, Thermo Scientific, MI, USA) or F-actin (ActinGreen™ 488 ReadyProbes, ThermoFisher Scientific, USA) for quantitative analysis. Elastin integrity score was rated by blinded observers and graded on an arbitrary scale of 5 (indicating high quality elastic fiber) to 1 (indicating severe elastin fragmentation). For nuclear staining aortas from human and mice were cryosectioned using OCT standard protocol as described previously (Fischer et al., 2008). Cohorts of 8-week-old wild-type or Fbn1cw3gGi+ mice were treated with oral administration in drinking water of either Losartan or GSK343 for 20 weeks (FIG. 5). […] Then 200 mL of drinking water was supplemented with 250 pL of GSK343 stock solution. […] Aortic dimensions were monitored monthly by echocardiograms as mentioned above.

VSMCs = assay: cytoskeletal architecture of VSMCs treated with GSK343; format: cell-based, mouse
Procedure: Primary human aortic smooth muscle cells (HAoSMC) from healthy donors were purchased from Cell Applications Inc., California, USA (Cat. #354K-05a). Primary aneurysm aortic SMCs were isolated from fresh TAA tissue at the moment of surgery by standard explant of the aortic media. Mouse aortic SMCs were isolated by standard explant of the ascending section of the aortas from wild-type or Fbn1ci°39G1+ mice. Smooth muscle cell identity was assessed by immunofluorescence staining of contractile markers including SM22a, Calponin, Smoothelin and Vinculin. In order to preserve cell identity all experiments were carried out at passages 1-5 (Timraz et al., 2016). Human and murine SMCs were grown with smooth muscle cell growth medium from Cell Applications Inc. (Cat. #311-500). […] Fresh media containing GSK343 was supplied daily. For GSK343/TGF81 (10 ng/mL) combo treatment, cells were first treated with complete media containing GSK343 at concentration of 10 nM during the 2 first days followed by GSK343/TGFβ combination treatment the next 2 days. Prior to cellular collection cells were washed with sterile PBS and RNA or protein extraction were performed as described above.

MMP2 and MMP9 activity = assay: in vivo MMP activity (MMPSense 750 FAST) after carotid ligation; parameters: species or system mouse; settings: 24 h post injection, ligated mice
Procedure: Mice were tail vein injected with 600 uL of MMPSense 750 FAST, a near-infrared fluorescence sensor for MMP2 and MMP9 activity, (PerkinElmer, USA). Mice were sacrificed 24 h post injection and aortas were dissected and analyzed using a Kodak image station 4000MM Pro for macroscopic fluorescence reflectance molecular imaging.
Cohorts of 10-week-old wild-type mice were treated with oral administration in drinking water of GSK343 24 hrs before left carotid ligation and following treatment for 3 weeks. GSK343 inhibitor (25 mg) was dissolved in 1 mL of DMSO to obtain a stock solution of 46 mM. Then, 250 ml of drinking water was supplemented with 250 pl of GSK343 stock solution. Control group for was given with equal volumes of sterile water. Bottles containing GSK343 were replaced with fresh water supplied with drug every 3 days. For Malatl antisense LNA treatments, cohorts of 10-week-old wild-type mice were injected with 15 nmol in saline solution 24 hrs before left carotid ligation following by a second injection 7 days post-ligation.

H3K27me3 = H3K27me3 staining in aortas of treated Fbn1C1039G/+ mice; format: in vivo, mouse; settings: compared to control or losartan treated mice
Procedure: as §3

Mmp9 = assay: immunofluorescence of Mmp9 in ligated carotid; format: in vivo, mouse; settings: arterial media and intima of carotid arteries
Procedure: as §1, §2

SM22a = assay: immunostaining of SM22a protein in aortas of treated Fbn1C1039G/+ mice; format: in vivo, mouse; settings: compared to control Fbn1C1039G/+ mice
Procedure: as §3

[1] = tested on: H3K27 methylation in HCC1806 cells; settings: read-out: IC50 for inhibition of H3K27 methylation; cited from earlier work
[2] = tested on: other histone methyltransferases; settings: cited from earlier work
FAK = assay: immunofluorescence of p-FAK in ligated carotid; format: in vivo, mouse; settings: media and intima of carotid arteries
Procedure: as §1, §2

PDGFR = assay: immunofluorescence of p-PDGFR in ligated carotid; format: in vivo, mouse; settings: media and intima of carotid arteries
Procedure: as §1, §2

CCCc1cc(C)[nH]c(=O)c1CNC(=O)c1cc(-c2ccnc(N3CCN(C)CC3)c2)cc2c1cnn2C(C)C [GSK343]
accumulation of Hdac9 (Hdac9): decreased accumulation
TGF-β activity as assessed by phosphorylation of Smad2 or Erk1 protein (TGF-β signaling): did not suppress and not
cytoskeletal architecture (VSMCs): improved cytoskeletal architecture
activity of MMPs (MMP2 and MMP9 activity): Inhibition of Mmp activity; also recorded: inhibited the activity of MMPs
H3K27me3 staining / aortic medial H3K27me3 modifications (H3K27me3): significant suppression of H3K27me3 staining; also recorded: significantly decreased
accumulation of Mmp9 (Mmp9): decreased accumulation
SM22a protein expression (immunostaining of aortas) (SM22a): recovery of SM22a protein expression
IC50 [1]: < 0.2 µM
selectivity against other histone methyltransferases [2]: ≥ 1000 fold
phosphorylation of FAK (FAK): dramatic reduction
phosphorylation of PDGFR (PDGFR): dramatic reduction
